Source: patent US6849757B2, “Antiangiogenic drug to treat cancer, arthritis and retinopathy” (Abbott Laboratories, priority 1998, dated 2005)

System: Human Microvascular Endothelial Cells (HMVEC)
Assay: Endothelial cell migration assay (modified Boyden chamber, bFGF-stimulated)
Format: cell-based
Conditions: HMVEC migration toward bFGF, 4 hours at 37° C., percent inhibition of migration compared to a positive control; for inhibition at 0.2 µM: Homo sapiens, 200 nM test compound
Experimental: Endothelial Cell Migration Assay
The endothelial cell migration assay was performed essentially as described by Polverini, P. J. et al., Methods Enzymol, 198: 440-450 (1991). Briefly, Human Microvascular Endothelial Cells (HMVEC) were starved overnight in DMEM containing 0.1% bovine serum albumin (BSA). Cells were then harvested with trypsin and resuspended in DMEM with 0.1% BSA at a concentration of 1.5×10^6 cells/mL. Cells were added to the bottom of a 48-well modified Boyden chamber (Nucleopore Corporation, Cabin John, Md.). The chamber was assembled and inverted, and cells were allowed to attach for 2 hours at 37° C. to polycarbonate chemotaxis membranes (5 μm pore size) that had been soaked in 0.1% gelatin overnight and dried. The chamber was then reinverted and basic fibroblast growth factor (bFGF) and test substances were added to the wells of the upper chamber (to a total volume of 50 μL); the apparatus was then incubated for 4 hours at 37° C. Membranes were recovered, fixed and stained (DiffQuick, Fisher Scientific, Pittsburgh, Pa.) and the number of cells that had migrated to the upper chamber per 10 high power fields were counted. Background migration to DMEM+0.1% BSA was subtracted and the data reported as the number of cells migrated per 10 high power fields (400×) or when results from multiple experiments were combined, as the percent inhibition of migration compared to a positive control.

COC(=O)c1ccc(NC(=O)[C@@H](CCCCN)NC(=O)OC(C)(C)C)cc1-c1ccccc1O [Example 10, (R)-methyl 4-[[6-amino-2-[[(1,1-dimethylethoxy)carbonyl]amino]-1-oxohexyl]amino]-2-(2-hydroxyphenyl)benzoate]
inhibition at 0.2 µM: 80%

COC(=O)c1ccc(NC(=O)[C@H](CCCCNC(=O)OCc2ccccc2)NC(C)=O)cc1-c1cccc(OCc2ccccc2)c1 [Example 12]
% inhibition at 200 nM test compound: 29%

CC(=O)N[C@@H](CCCCN)C(=O)Nc1ccc(C(=O)O)c(-c2cccc(O)c2)c1 [Example 15, (S)-4-[[2-(acetylamino)-6-amino-1-oxohexyl)amino]-2-(3-hydroxphenyl)benzoic acid]
% inhibition at 200 nM test compound: 64%

CC(=O)NC(CCCCN)C(=O)Nc1ccc(C(=O)N[C@@H](CC(N)=O)C(=O)O)c(-c2ccccc2)c1 (stereo partly shown) [Example 17]
% inhibition at 200 nM test compound: >95%

NC(CCCCNC(=O)OCc1ccccc1)C(=O)Nc1ccc(CC(=O)N[C@@H](CC(=O)O)C(=O)O)cc1 (stereo partly drawn) [Example 20, (S)-N-[[4-[[2-amino-6-[[(phenylmethoxy)carbonyl]amino]-1-oxohexyl]amino]phenyl]acetyl]-L-aspartic Acid]
inhibition at 0.2 µM: 34%

CC(C)(C)OC(=O)N[C@@H](CCCCN)C(=O)Nc1ccc(C(=O)O)c(-c2cccc(O)c2)c1 [Example 31, 5-(((2S)-6-amino-1-(tert-butoxycarbonyl)aminohexanoyl)amino)-3′-hydroxy(1,1′-biphenyl)-2-carboxylic Acid]
% inhibition at 200 nM test compound: >95%

(S)-N-[4-[[2-(acetylamino)-6-amino-1-oxohexyl]amino]benzoyl]-L-α-asparagine [Example 18]
% inhibition at 200 nM test compound: 90%
